Assay results taken from ChEMBL document CHEMBL1201862, “PubChem BioAssay data set” (2004).
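Following 48 hours of exposure in 96-well plates, responses at five concentrations were used to interpolate endpoints linearly. At the GI50, growth is halved.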 The source made the active and inactive calls. No stated cut-off is given here; in the data, active = GI50 up to about 1.1 µM and inactive = higher.

Assays:
Assay in all cases: NCI tumour cell line growth inhibition, 48 h
A549 = test system: A549
TK-10 = test system: TK-10
LOX IMVI = test system: LOX IMVI
SNB-19 = test system: SNB-19
HL-60 = test system: HL-60
Malme-3M = test system: Malme-3M
KM12 = test system: KM12
K562 = test system: K562
HCT-116 = test system: HCT-116
SK-MEL-5 = test system: SK-MEL-5
M14 = test system: M14
OVCAR-4 = test system: OVCAR-4
NCI-H226 = test system: NCI-H226
OVCAR-5 = test system: OVCAR-5
HOP-92 = test system: HOP-92
MDA-MB-435 = test system: MDA-MB-435
DU-145 = test system: DU-145
MCF7 = test system: MCF7
MDA-MB-231 = test system: MDA-MB-231

Structure (SMILES) | GI50 (A549) | GI50 (TK-10) | GI50 (LOX IMVI) | GI50 (SNB-19) | GI50 (HL-60) | GI50 (Malme-3M) | GI50 (KM12) | GI50 (K562) | GI50 (HCT-116) | GI50 (SK-MEL-5) | GI50 (M14) | GI50 (OVCAR-4) | GI50 (NCI-H226) | GI50 (OVCAR-5) | GI50 (HOP-92) | GI50 (MDA-MB-435) | GI50 (DU-145) | GI50 (MCF7) | GI50 (MDA-MB-231)
COC(OC)c1cccc2c1C(=O)CCC1(CC2)OCCCCO1 | > 100 µM (inactive) | > 100 µM (inactive) | > 100 µM (inactive) | > 100 µM (inactive) | > 100 µM (inactive) | > 100 µM (inactive) | > 100 µM (inactive) | > 100 µM (inactive) | > 100 µM (inactive) | > 100 µM (inactive) | > 100 µM (inactive) | > 100 µM (inactive) | > 100 µM (inactive) | > 100 µM (inactive) |  |  |  |  | 
O=C1NC(=O)C2C(=O)NC(=O)C1C2c1c(Cl)cccc1Cl (stereo not drawn) | > 72.4 µM (inactive) | > 100 µM (inactive) | > 43 µM (inactive) | > 100 µM (inactive) | > 44.4 µM (inactive) | > 100 µM (inactive) | > 69.2 µM (inactive) | > 49.4 µM (inactive) | > 42.6 µM (inactive) | > 100 µM (inactive) | > 100 µM (inactive) | > 100 µM (inactive) | > 100 µM (inactive) | > 100 µM (inactive) | > 100 µM (inactive) |  |  |  | 
CCC(=O)C(C)C1=Nc2nnc(CCCCCCCc3nnc4n3C(=O)C(C(C)C(=O)CC)=N4)n2C1=O (stereo not drawn) | > 100 µM (inactive) | > 100 µM (inactive) | > 100 µM (inactive) | > 100 µM (inactive) | > 100 µM (inactive) | > 100 µM (inactive) | > 100 µM (inactive) | > 100 µM (inactive) | > 100 µM (inactive) | > 100 µM (inactive) | > 100 µM (inactive) |  | > 100 µM (inactive) | > 100 µM (inactive) | > 100 µM (inactive) |  |  |  | 
COC1(OC)CC2C(=O)N(Cc3ccccc3)C1C(S(=O)(=O)c1ccccc1)C2S(=O)(=O)c1ccccc1 (stereo not drawn) | 29.6 µM (inactive) | 15.2 µM (inactive) | 10.2 µM (inactive) | > 100 µM (inactive) | 3.87 µM (inactive) | 15.6 µM (inactive) | 16.4 µM (inactive) | 7.48 µM (inactive) | 16.4 µM (inactive) | 18.4 µM (inactive) | 14.8 µM (inactive) | 15.1 µM (inactive) | 19.7 µM (inactive) | 19.9 µM (inactive) | 19.3 µM (inactive) |  |  |  | 
NC1=C(O)c2cccc3cccc(c23)C1=O | > 100 µM (inactive) | > 100 µM (inactive) | > 100 µM (inactive) | > 100 µM (inactive) | > 100 µM (inactive) | > 100 µM (inactive) | > 100 µM (inactive) | > 100 µM (inactive) | > 100 µM (inactive) | > 100 µM (inactive) | > 100 µM (inactive) | > 100 µM (inactive) | 35.9 µM (inactive) | > 100 µM (inactive) | > 100 µM (inactive) |  |  |  | 
CC(=O)NNc1nc(C)c(C(=O)NNC(=O)C(=O)Nc2ccc(Cl)cc2Cl)s1 | 35.9 µM (inactive) | 74.3 µM (inactive) | 33.7 µM (inactive) | 42.6 µM (inactive) | 37.4 µM (inactive) | 57 µM (inactive) | 53.7 µM (inactive) | 21 µM (inactive) | 47.2 µM (inactive) | 30.5 µM (inactive) | 42.5 µM (inactive) | 22 µM (inactive) | 34.2 µM (inactive) | 55.1 µM (inactive) | 25.9 µM (inactive) |  |  |  | 
Cc1cccc(N2C(=O)C(=O)C(c3nc4ccccc4s3)C(=O)C2=O)c1C | > 100 µM (inactive) | > 100 µM (inactive) | > 100 µM (inactive) | > 100 µM (inactive) | < 0.01 µM (active) | > 100 µM (inactive) |  | > 100 µM (inactive) | > 100 µM (inactive) | > 100 µM (inactive) | > 100 µM (inactive) | > 100 µM (inactive) | > 100 µM (inactive) | > 100 µM (inactive) | > 100 µM (inactive) |  |  |  | 
CC(=O)/C(=N\O)C(=O)Nc1ccc(Cl)cc1Cl | > 100 µM (inactive) | > 100 µM (inactive) | > 100 µM (inactive) | > 100 µM (inactive) | > 100 µM (inactive) | > 100 µM (inactive) | > 100 µM (inactive) | > 100 µM (inactive) | > 100 µM (inactive) | > 100 µM (inactive) | > 100 µM (inactive) | > 100 µM (inactive) | > 100 µM (inactive) | > 100 µM (inactive) | > 100 µM (inactive) |  |  |  | 
CC1(C)CC(c2c[nH]c3ccccc23)=CC2=Nc3ccccc3C21O (stereo not drawn) | 35.5 µM (inactive) | > 100 µM (inactive) | > 100 µM (inactive) | 65.2 µM (inactive) | > 100 µM (inactive) | > 100 µM (inactive) | > 100 µM (inactive) | 91.6 µM (inactive) | 41.8 µM (inactive) | 36.4 µM (inactive) | > 100 µM (inactive) | 8.38 µM (inactive) | 15.2 µM (inactive) | > 100 µM (inactive) | 15 µM (inactive) |  |  |  | 
Cc1c(C(=O)C/C(=N/NC(=O)c2ccccc2O)C(=O)Nc2ccccc2C(C)C)[n+]([O-])c2ccccc2[n+]1[O-] | 34.7 µM (inactive) | > 100 µM (inactive) | 32.1 µM (inactive) | > 100 µM (inactive) | 3.01 µM (inactive) | 48.6 µM (inactive) | 53.6 µM (inactive) | 33.7 µM (inactive) | 27.7 µM (inactive) | 43 µM (inactive) | 31 µM (inactive) | 31.8 µM (inactive) | > 100 µM (inactive) | > 100 µM (inactive) |  |  |  |  | 
CCCCCCCCCCC(=O)CCCCCCC(=O)O | 15.3 µM (inactive) | 32.1 µM (inactive) | 15.7 µM (inactive) | 42.1 µM (inactive) | 4.23 µM (inactive) | 20.8 µM (inactive) | 15.5 µM (inactive) | 7.33 µM (inactive) | 13.8 µM (inactive) | 15.5 µM (inactive) | 20.5 µM (inactive) | 45.6 µM (inactive) | 32.8 µM (inactive) | 16.3 µM (inactive) | 16.9 µM (inactive) |  |  |  | 
COc1cc([C@@H]2c3cc4c(cc3[C@@H](NC(=O)c3ccc(OC(C)=O)cc3)C3COC(=O)[C@@H]32)OCO4)cc(OC)c1O (stereo partly drawn) | 0.275 µM (active) | 10.7 µM (inactive) | 1.39 µM (inactive) | 2.16 µM (inactive) | 0.153 µM (active) | 2.43 µM (inactive) | 2.66 µM (inactive) | 2.17 µM (inactive) | 2.61 µM (inactive) | 1.99 µM (inactive) | 2.56 µM (inactive) | 39.9 µM (inactive) | 0.798 µM (active) | 4.36 µM (inactive) | 1.34 µM (inactive) |  |  |  | 
CN(C)CC1CCCC/C1=N\OC(=O)c1ccccc1 (stereo not drawn) | > 100 µM (inactive) | > 100 µM (inactive) | > 100 µM (inactive) |  | > 100 µM (inactive) | > 100 µM (inactive) | > 100 µM (inactive) | > 100 µM (inactive) | > 100 µM (inactive) | > 100 µM (inactive) | > 100 µM (inactive) | > 100 µM (inactive) | > 100 µM (inactive) | > 100 µM (inactive) | > 100 µM (inactive) |  |  |  | 
Cc1c2ccnc(O)c2cc2c(=O)c3cnccc3[nH]c12 | > 100 µM (inactive) | > 100 µM (inactive) | > 100 µM (inactive) | > 100 µM (inactive) | > 100 µM (inactive) | > 100 µM (inactive) | > 100 µM (inactive) | > 100 µM (inactive) | > 100 µM (inactive) | > 100 µM (inactive) | > 100 µM (inactive) | > 100 µM (inactive) | > 100 µM (inactive) | > 100 µM (inactive) | > 100 µM (inactive) |  |  |  | 
COc1cc2nc(Cl)nc(NS(=O)(=O)c3cc4ccccc4s3)c2cc1OC | 32 µM (inactive) | 28.3 µM (inactive) | 23.3 µM (inactive) | 21 µM (inactive) |  | 32 µM (inactive) | 23.3 µM (inactive) | 18.2 µM (inactive) | 30.2 µM (inactive) | 19.1 µM (inactive) | 26.2 µM (inactive) | 27.4 µM (inactive) | 36.8 µM (inactive) | 19.6 µM (inactive) | 18 µM (inactive) | 22.4 µM (inactive) | 21.3 µM (inactive) | 31.6 µM (inactive) | 24.9 µM (inactive)
CCC1CNC(=O)CC1CC(=O)OC (stereo not drawn) | > 100 µM (inactive) | > 100 µM (inactive) | > 100 µM (inactive) | > 100 µM (inactive) | > 100 µM (inactive) | > 100 µM (inactive) | > 100 µM (inactive) | > 100 µM (inactive) | > 100 µM (inactive) | > 100 µM (inactive) | > 100 µM (inactive) | > 100 µM (inactive) | > 100 µM (inactive) | > 100 µM (inactive) | > 100 µM (inactive) |  |  |  | 
Cc1c(/C=C2\CC/C(=C\c3[nH]c(C(=O)OC(C)(C)C)c(C)c3C)C2=O)[nH]c(C(=O)OC(C)(C)C)c1C | > 100 µM (inactive) | > 100 µM (inactive) | > 100 µM (inactive) | > 100 µM (inactive) | > 100 µM (inactive) | > 100 µM (inactive) | > 100 µM (inactive) | > 100 µM (inactive) | > 100 µM (inactive) | > 100 µM (inactive) | > 100 µM (inactive) | > 100 µM (inactive) | > 100 µM (inactive) | > 100 µM (inactive) | > 100 µM (inactive) |  |  |  | 
COc1cc(CO)cc2c1[nH]c1ccccc12 [KOENOLINE] | > 25 µM (inactive) | > 25 µM (inactive) | > 25 µM (inactive) | > 25 µM (inactive) | > 25 µM (inactive) | > 25 µM (inactive) | > 25 µM (inactive) | 11.9 µM (inactive) | > 25 µM (inactive) | > 25 µM (inactive) | > 25 µM (inactive) | > 25 µM (inactive) | 1.73 µM (inactive) | 20.8 µM (inactive) | > 25 µM (inactive) |  |  |  | 
